Source: patent publication US20250049037A1, “HERBICIDAL ACTIVITY OF ALKYL PHOSPHINATES” (priority 2021, published 2025)

Experiments:
Format in all cases: in vivo
Setaria viridis (SETVI) = test: Greenhouse herbicidal test, post-emergence; conditions: postemergence, application rate 5 kg/ha, scale 0 to 100
Text: (§1) The culture containers used were plastic flowerpots containing loamy sand with approximately 3.0% of humus as the substrate. The seeds of the test plants were sown separately for each species.
(§2) For the post-emergence treatment, the test plants were first grown to a height of 2 to 15 cm, depending on the plant habit, and only then treated with the active ingredients which had been suspended or emulsified in water. For this purpose, the test plants were either sown directly and grown in the same containers, or they were first grown separately as seedlings and transplanted into the test containers a few days prior to treatment.
(§3) Depending on the species, the test plants were kept at 10-25° C. or 20-35° C., respectively.
(§4) The test period extended over 2 to 4 weeks. During this time, the test plants were tended, and their response to the individual treatments was evaluated.
(§5) Evaluation was carried out using a scale from 0 to 100. 100 means no emergence of the test plants, or complete destruction of at least the aerial moieties, and 0 means no damage, or normal course of growth. A moderate herbicidal activity is given at values of 40 to 59, good herbicidal activity is given at values of more than 59 to 80 and a very good herbicidal activity is given at values of more than 80 to 100.

[1] = test system: Amaranthus retroflexus (AMARE); test: Greenhouse herbicidal test, post-emergence; conditions: postemergence, application rate 5 kg/ha, scale 0 to 100
Text: as §1, §2, §3, §4, §5

[2] = test system: Echinocloa crus-galli (ECHCG); test: Greenhouse herbicidal test, post-emergence; conditions: postemergence, application rate 5 kg/ha, scale 0 to 100
Text: as §1, §2, §3, §4, §5

[3] = test system: Alopercurus myosuroides (ALOMY); test: Greenhouse herbicidal test, post-emergence; conditions: postemergence, application rate 5 kg/ha, scale 0 to 100
Text: as §1, §2, §3, §4, §5

[4] = test system: Apera spica-venti (APESV); test: Greenhouse herbicidal test, pre-emergence; conditions: application rate 5 kg/ha, scale 0 to 100
Text: as §1
For the pre-emergence treatment, the active ingredients, which had been suspended or emulsified in water, were applied directly after sowing by means of finely distributing nozzles. The containers were irrigated gently to promote germination and growth and subsequently covered with transparent plastic hoods until the test plants had rooted. This cover caused uniform germination of the test plants, unless this had been impaired by the active ingredients.
as §3, §4, §5

With `CP(=O)(O)CCC1NC(=O)NC1=O` (centres unmarked) [Compound e] the “herbicidal activity against SETVI” value (Setaria viridis (SETVI)) was “good (good herbicidal activity is given at values of more than 59 to 80)”.

For `CCCCOP(C)(=O)CCC(NC(N)=O)C(=O)O` (centres unmarked) [Compound f, 4-[butoxy(methyl)phosphoryl]-2-ureido-butanoic acid], the “herbicidal activity against AMARE” value [1] was “good (good herbicidal activity is given at values of more than 59 to 80)” and the “herbicidal activity against ECHCG” value [2] was “good (good herbicidal activity is given at values of more than 59 to 80)”.

In the case of `CP(=O)(O)CCC(NC(N)=O)C(=O)O` (centres unmarked) [Compound a], the “herbicidal activity against ALOMY” value [3] is reported as “moderate (A moderate herbicidal activity is given at values of 40 to 59)”.

`CP(=O)(O)CC[C@@H](NC(N)=O)C(=O)O` [Compound b] was tested, and the “herbicidal activity against APESV” value [4] was “good (good herbicidal activity is given at values of more than 59 to 80)”.
